We go through 6 molecules from US11951088B2, “Fatty acid analogs and their use in the treatment of conditions related to metabolic syndrome” (Epitracker, Inc., priority 2017, dated 2024).

Where two headings read alike, the source gives them in different places.

In general, AUC(0-t) refers to the area under the concentration-time curve up to a stated or last time point. For orientation: Cmax means the maximum level reached in the sampled fluid or tissue.

Series [1] has as its system 12 human primary cell-based systems. Description: BioMAP Diversity Plus panel, biomarker readouts. As to conditions: compared to C15:0-treated systems and non-treated controls; 740 nm and 2.2, 6.7 and 20 μM. From the text: This study examined and compared activities of a saturated free fatty acid (C15:0) and three substituents (2-methyl-, 2,2-dimethyl-, and 1-tetrazole-C15:0) across 12 human primary cell-based systems as part of DiscoverX's BioMAP Diversity Plus program. These systems are designed to model complex human tissue and disease biology of the vasculature, skin, lung, and inflammatory tissues. Quantitative measurements of biomarker activities across this broad panel, along with comparative analysis of biological activities of known bioactive agents were used to predict and compare the efficacy and function of the four compounds.
BioMAP panels consist of human primary cell-based systems designed to model different aspects of the human body in an in vitro format. The 12 systems in the Diversity PLUS panel allow test agent characterization in an unbiased way across a broad set of systems modeling various human disease states. BioMAP systems are constructed with one or more primary cell types from healthy human donors, with stimuli (such as cytokines or growth factors) added to capture relevant signaling networks that naturally occur in human tissue or pathological conditions. Vascular biology is modeled in both a Th1 (3C system) and a Th2 (4H system) inflammatory environment, as well as in a Th1 inflammatory state specific to arterial smooth muscle cells (CASM3C system). Additional systems recapitulate aspects of the systemic immune response including monocyte-driven Th1 inflammation (LPS system) or T cell stimulation (SAg system), chronic Th1 inflammation driven by macrophage activation (lMphg system) and the T cell-dependent activation of B cells that occurs in germinal centers (BT system). The BE3C system (Th1) and the BF4T system (Th2) represent airway inflammation of the lung, while the MyoF system models myofibroblast-lung tissue remodeling. Lastly, skin biology is addressed in the KF3CT system modeling Th1 cutaneous inflammation and the HDF3CGF system modeling wound healing.
Each test agent generates a signature BioMAP profile that is created from the changes in protein biomarker readouts within individual system environments. Biomarker readouts (7-17 per system) are selected for therapeutic and biological relevance, are predictive for disease outcomes or specific drug effects and are validated using agents with known mechanism of action (MoA). Each readout is measured quantitatively by immune-based methods that detect protein (e.g., ELISA) or functional assays that measure proliferation and viability. BioMAP readouts are diverse and include cell surface receptors, cytokines, chemokines, matrix molecules and enzymes.

A further series has as its target T1, human PPAR-γ (Homo sapiens, UniProt P37231).
T1 sequence (P37231 1-505): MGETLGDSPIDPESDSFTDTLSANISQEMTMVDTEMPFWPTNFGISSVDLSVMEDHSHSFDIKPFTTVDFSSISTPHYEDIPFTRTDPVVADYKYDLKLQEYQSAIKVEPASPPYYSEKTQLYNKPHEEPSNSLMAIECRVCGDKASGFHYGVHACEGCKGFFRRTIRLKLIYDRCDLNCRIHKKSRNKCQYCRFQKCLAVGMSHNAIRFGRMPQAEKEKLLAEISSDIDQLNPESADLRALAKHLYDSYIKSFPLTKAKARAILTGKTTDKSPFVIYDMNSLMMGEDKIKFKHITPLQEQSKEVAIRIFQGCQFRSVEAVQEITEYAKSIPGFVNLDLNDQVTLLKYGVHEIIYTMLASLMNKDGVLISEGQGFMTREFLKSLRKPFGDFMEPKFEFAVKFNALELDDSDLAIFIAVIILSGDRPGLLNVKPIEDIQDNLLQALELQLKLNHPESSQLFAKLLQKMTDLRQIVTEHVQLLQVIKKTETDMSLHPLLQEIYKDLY
Description: PathHunter NHR Protein Interaction assay, PPAR-γ agonist activity (CHO cells).

The target of another series is T2, human PPAR-δ (Homo sapiens, UniProt Q03181).
T2 sequence (Q03181 1-441): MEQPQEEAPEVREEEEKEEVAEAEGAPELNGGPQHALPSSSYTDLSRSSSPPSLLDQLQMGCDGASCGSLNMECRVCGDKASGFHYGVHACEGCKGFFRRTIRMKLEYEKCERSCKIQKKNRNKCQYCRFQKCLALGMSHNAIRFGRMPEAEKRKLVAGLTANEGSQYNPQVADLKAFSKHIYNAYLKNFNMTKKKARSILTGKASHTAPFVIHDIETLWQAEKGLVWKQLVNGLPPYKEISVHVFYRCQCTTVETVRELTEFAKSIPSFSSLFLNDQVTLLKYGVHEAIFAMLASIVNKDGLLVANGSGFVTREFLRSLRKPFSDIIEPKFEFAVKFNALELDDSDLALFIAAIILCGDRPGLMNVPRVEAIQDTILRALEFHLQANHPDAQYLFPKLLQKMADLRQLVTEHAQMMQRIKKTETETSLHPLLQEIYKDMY
Description: PathHunter NHR Protein Interaction assay, PPAR-δ agonist activity (CHO cells).

The target of the next series is T3, human PPAR-α (Homo sapiens, UniProt Q07869).
T3 sequence (Q07869 1-468): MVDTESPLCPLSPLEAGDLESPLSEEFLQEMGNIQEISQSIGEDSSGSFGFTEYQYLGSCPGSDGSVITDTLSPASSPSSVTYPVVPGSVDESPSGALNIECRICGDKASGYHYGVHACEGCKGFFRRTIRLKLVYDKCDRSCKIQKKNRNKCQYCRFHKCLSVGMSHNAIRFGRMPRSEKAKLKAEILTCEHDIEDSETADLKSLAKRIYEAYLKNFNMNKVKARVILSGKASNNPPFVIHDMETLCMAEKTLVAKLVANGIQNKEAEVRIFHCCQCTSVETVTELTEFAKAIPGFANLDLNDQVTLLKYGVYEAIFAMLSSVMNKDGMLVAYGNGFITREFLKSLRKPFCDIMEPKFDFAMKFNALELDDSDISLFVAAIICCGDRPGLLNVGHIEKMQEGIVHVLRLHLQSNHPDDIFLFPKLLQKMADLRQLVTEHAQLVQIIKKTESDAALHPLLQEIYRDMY
Put plainly: PathHunter NHR Protein Interaction assay, PPAR-α agonist activity (CHO cells).

Series [2] is described as follows: 24-hour plasma pharmacokinetics after single oral dose in rats. As to conditions: for bioavailability: po. The series is classed as in vivo.
Series [3] relates to C57BL/6J mice fed a high fat diet. Description: diet-induced obese mice treated daily by gastric gavage for 12 weeks. The series is classed as in vivo. The note with it: for Cholesterol / Glucose / IL-6 / Insulin / LDL-C / MCP-1 / TNF-α: Day 84, 6 h fasted. The protocol: Forty C57BL/6J mice were fed a high fat diet (HFD) (D12492, 60% kcals fat) for 8 weeks. Study mice were then divided into the following four groups of ten: vehicle controls, low dose C17:0-treated (5 mg/kg body weight), high-dose C17:0-treated (50 mg/kg body weight), and low-dose C15:0-treated (5 mg/kg body weight).
Table 1 provides comparisons of cardiometabolic effects in diet-induced obese mice treated daily with oral pentadecanoic acid (5 mg/kg BW), heptadecanoic acid (5 and 50 mg/kg BW) for 12 weeks compared to vehicle controls. “Results” values are based on 6 h fasted samples.

Setting [4] is: Half Maximal Effective Concentration (EC50), PPAR-α, Table 5.
The mark [5] stands for this setting: CHO, read-out: Maximum Response.

Description for human PPAR-α: (§1) PPAR-α, PPAR-δ, and PPAR-γ agonist activities were measured using PathHunter Nuclear Hormone Receptor (NHR) Protein Interaction (Pro) assays (DiscoverX, Freemont, California). Briefly, Chinese hamster ovary (CHO) cell lines were used to monitor the activation of PPAR-α, PPAR-δ, and PPAR-γ in a homogenous, non-imaging assay format using Enzyme Fragment Complementation (EFC). The NHR Pro assay was based on detection of protein-protein interactions between activated, full length PPAR-α, PPAR-δ, and PPAR-γ proteins and a nuclear fusion protein containing Steroid Receptor Co-activator Peptide (SRCP) domains with one or more canonical LXXLL interaction motifs. PPAR-α, PPAR-δ, and PPAR-γ were tagged with the ProLink component of the EFC assay system, and the SRCP domain was fused to the enzyme acceptor component (EA) expressed in the nucleus. When bound by ligand, PPAR-α, PPAR-δ, or PPAR-γ migrated to the nucleus and recruited the SRCP domain, whereby complementation occurred, generating a unit of active β-Galactosidase (β-Gal) and production of chemiluminescent signal. […] Percentage activity was calculated using the following formula: % Activity=100%×(mean RLU of test sample−mean RLU of vehicle control)/(mean MAX control ligand−mean RLU of vehicle control).
Description for human PPAR-γ: as §1
Description for human PPAR-δ: as §1

As for `CCCCCCCCCCCCCC(C)(C)C(=O)O` [2,2-dimethyl-C15:0, 2,2-dimethylpentadecanoic acid], in series [1], the CD38 result is recorded as “lower”, the CD99 entry is “lower”, the ICAM-1 result is recorded as “lower” and the IL-1α result was “lower”. In series [1], the IL-8 entry was “lower”, the IP-10 result is given as “lower”, the IP-18 result is listed as “lower” and the MCP-1 entry was “lower”. In addition, in series [1], the MIG entry is “lower”, the MMP-1 result is recorded as “lower”, the MMP-3 result is recorded as “lower” and the MMP-9 result was “lower”. In series [1], the PAI-1 result is on record as “lower”, the VCAM-1 entry is listed as “lower”, the eotaxin-3 result is “lower” and the “keratin 8/18” value is recorded as “lower”. Also, the tissue factor result in series [1] is “lower”.

For `CCCCCCCCCCCCCC(CC)C(=O)O` (stereo not drawn) [2-ethyl-C15:0, 2-ethylpentadecanoic acid], the EC50 at human PPAR-γ is 51 µM; at human PPAR-δ, 0.3 µM; at human PPAR-α (setting [4]) it was 1.2 µM. Moreover, the “EC50 % improvement over FFA form” value on human PPAR-γ (PPAR-γ, compared to free fatty acid form) is listed as more than 49%; on human PPAR-δ (PPAR-δ, compared to free fatty acid form), 89%; on human PPAR-α (PPAR-α, compared to free fatty acid form), 90%. On human PPAR-γ (compared to the free fatty acid form), the “PPAR-γ agonist activity (in words)” value is given as “acquired PPAR-γ agonist activity”.

Regarding `CCCCCCCCCCCCCC(C)C(=O)O` (stereo not drawn) [2-methyl-C15:0, 2-methylpentadecanoic acid], in series [1], the CD40 result is “lower”, the ICAM-1 result is “lower”, the IL-1α entry is reported as “lower” and the IL-8 entry is given as “lower”. Besides, in series [1], the IP-10 result is on record as “lower”, the IP-18 result is reported as “lower”, the MCP-1 result is reported as “lower” and the MIG entry was “lower”. In addition, in series [1], the MMP-1 result was “lower”, the MMP-3 result was “lower”, the MMP-9 entry was “lower” and the PAI-1 entry was “lower”. Further, in series [1], the VCAM-1 entry is given as “lower”, the eotaxin-3 result was “lower”, the “keratin 8/18” value is “lower” and the “secreted IgG” value was “lower”. In series [2] (5 mg/kg single oral dose), the Cmin came out at 660 ng/mL and the Tlast turned out to be 24 h. In series [2] (35 mg/kg single oral dose), the Cmin stood at 3790 ng/mL and the Tlast is on record as 24 h. The molecule further returned an AUC(0-t) in series [2] (rat, 5 mg/kg single oral dose) of 28.4 µg·h/mL. The Cmax in series [2] (rat, 5 mg/kg single oral dose, deuterated form) was 3590 ng/mL. Moreover, the AUC(0-t) in series [2] (rat, 35 mg/kg single oral dose) is 182 µg·h/mL. Besides, in series [2] (rat, 5 mg/kg, 5 mg/kg single oral dose, estimate using an AUC of 15 for a 1 mg/kg IV arm, read-out: % F), the bioavailability was 37.8%. The bioavailability in series [2] (rat, 35 mg/kg, 35 mg/kg single oral dose, estimate using an AUC of 15 for a 1 mg/kg IV arm, read-out: % F) is 34.7%. Moreover, in series [2] (rat, 35 mg/kg, oral, rats, read-out: estimated plasma % F (bioavailability)), the bioavailability is approximately 35%.

`CCCCCCCCCCCCCC(=O)O` [C14:0, myristic acid]: the EC50 at human PPAR-γ was more than 100 µM; at human PPAR-α (EC50, PPAR-alpha, Table 4) it was 8.35 µM; at human PPAR-α (setting [4]), 8.4 µM.

For the molecule `CCCCCCCCCCCCCCCC(=O)O` [C16:0, palmitic acid], the EC50 at human PPAR-γ is more than 100 µM; at human PPAR-γ (PPAR-gamma, Table 7), more than 100 µM; at human PPAR-γ (read-out: Half Maximal Effective Concentration (EC50), PPAR-γ, Table 5), more than 100 µM; at human PPAR-α (EC50, PPAR-alpha, Table 4), 27.3 µM; at human PPAR-α (EC50, PPAR-alpha, Table 7), 27.3 µM; at human PPAR-α (setting [4]), 27.3 µM. In addition, the Emax worked out at 4.68% on human PPAR-γ (setting [5]) and 56.1% on human PPAR-α (setting [5]).

`CCCCCCCCCCCCCCCCC(=O)O` [C17:0, heptadecanoic acid] registered an EC50 on human PPAR-γ of more than 100 µM. Besides, the “metabolic syndrome compared to vehicle controls (in words)” value in series [3] (12 weeks daily oral, C15:0 5 mg/kg, C17:0 5 and 50 mg/kg) is listed as “trended toward attenuated metabolic syndrome”. In series [3] (5 mg/kg daily oral), this molecule registered a Cholesterol of 197 ± 31 mg/dL, a Glucose of 296 ± 23 mg/dL, an IL-6 of 42 ± 40 pg/mL and an Insulin of 7.4 ± 4.8 ng/mL. For the same molecule, in series [3] (5 mg/kg daily oral), the LDL-C came out at 9 ± 3 mg/dL, the MCP-1 stood at 86 ± 30 pg/mL and the TNF-α stood at 3.7 ± 1.9 pg/mL. In series [3] (50 mg/kg daily oral), this molecule came in with a Cholesterol of 187 ± 44 mg/dL, a Glucose of 282 ± 31 mg/dL, an IL-6 of 38 ± 32 pg/mL and an Insulin of 6.8 ± 3.5 ng/mL. In series [3] (50 mg/kg daily oral), this molecule had an LDL-C of 8 ± 3 mg/dL, an MCP-1 of 53 ± 32 pg/mL and a TNF-α of 1.5 ± 1.5 pg/mL. Also, the EC50 at human PPAR-α (EC50, PPAR-alpha, Table 4) was more than 100 µM.
